Calls of active or inactive are those of the source. How the calls were made is not given here.
Test system: M. tuberculosis H37Rv growth inhibition with meropenem
Test: dose response, H37Rv, with and without meropenem (AID 434987);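 further: growth over 7 days at 37 °C before Alamar Blue read on day 9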
[1] = M. tuberculosis H37Rv growth inhibition, measured here: IC50 without meropenem
[2] = M. tuberculosis H37Rv growth inhibition, measured here: IC90 without meropenem
[3] = measured here: IC90 with meropenem

Structure (SMILES)	IC50	IC50 [1] [µM]	IC90 [2] [µM]	IC90 [3] [µM]
COc1c(NC(C)=O)c2ccccc2c2ccccc12	> 100 µM (inactive)	> 100	> 100	> 100
COC(=O)c1cc(C)[nH]c2c(C)cc3nc4ccccc4c3c12	> 100 µM (inactive)	> 100	> 100	> 100
COc1cc(/C=C/c2ccc3cccc([N+](=O)[O-])c3n2)ccc1OCC(=O)O	6.21 µM	24.9	62.5	12
O=C(c1cccc(Cl)c1)N1CCN(Cc2ccccc2F)CC1	> 100 µM (inactive)	> 100	> 100	> 100
Cc1ccc(/C=C2/SC(=S)N(CC(=O)Nc3ncc(Cc4ccc(C)cc4)s3)C2=O)cc1	> 100 µM (inactive)	> 100	> 100	> 100
O=C(Oc1c(-c2ccccc2)c(=O)n2c3c(cccc13)CC2)c1ccc(F)cc1	6.19 µM	54.2	> 100	34
CC(C)(C)c1nnc2sc(SCC(=O)c3cccs3)nn2c1=O	19.3 µM	> 100	> 100	> 100
CCOc1ccc2nc(NC(=O)c3cnccn3)sc2c1	4.07 µM	> 100	> 100	> 100
O=C(Nc1ccc(Cl)cc1)C1CC2CCCC(C1)C2=O (configuration not stated)	> 100 µM (inactive)	> 100	> 100	> 100
COc1ccc(NC(=O)CCC2CCCC2)cc1OC	> 100 µM (inactive)	> 100	> 100	> 100
O=C(O)c1cc(-c2ccco2)nc2ccc(Br)cc12	> 100 µM (inactive)	> 100	> 100	> 100
COc1ccc(NC(=O)CSc2nncn2C)c([N+](=O)[O-])c1	44.5 µM (inactive)	90.1	> 100	> 100
CCCOc1ccc(C(=O)CCN2CCCCC2)cc1	13.4 µM	54	77.1	36.4
O=C(CSc1nnc(SCc2ccccc2)s1)N/N=C/c1ccc(Cl)cc1Cl	72.2 µM (inactive)	> 100	> 100	> 100
COc1ccccc1C(c1c(N)n(C)c(=O)n(C)c1=O)C(C)[N+](=O)[O-] (configuration not stated)	11.2 µM (inactive)	21.4	28.9	18
CN(C)C1=C(Cl)C(=O)N(c2ccc(Cl)c(Cl)c2)C1=O	2.73 µM	7.91	24	14.9
CC12CCC(C/C1=N\N=C1\NC(=O)/C(=C\c3cccc(Br)c3)S1)C2(C)C (configuration not stated)	9.74 µM	26.6	37.3	37.7
CCOc1ccc(N2C(=O)CC(N)C2=O)cc1 (configuration not stated)	30.9 µM (inactive)	45.9	51.4	52.4
CSc1cccc(NC(=O)c2ccc(Cl)nc2)c1	> 100 µM (inactive)	> 100	> 100	> 100
CCCOc1ccccc1NC(=O)/C=C/C(N)=O	13.4 µM (inactive)	26.8	33.8	27.7

Structure (SMILES)	IC50	IC50 [1] [µM]	IC90 [2] [µM]	IC90 [3] [µM]
CNc1ccccc1NC(=O)C1CCCN1C(=O)OCc1ccccc1 (configuration not stated)	> 100 µM (inactive)	> 100	> 100	> 100
O=C1N/C(=C\c2ccc(O)cc2)C(=O)c2ccccc21	21.9 µM	59.6	> 100	> 100
COc1ccc(NC(=O)C(Cc2ccccc2)n2cccc2)c(OC)c1 (configuration not stated)	13.6 µM	47.5	> 100	> 100
O=C(COc1ccc2ccccc2c1)Nc1nc2ccccc2[nH]1	5.83 µM	62	> 100	> 100
Cc1sc2nc(C(C)Nc3ccccc3N3CCOCC3)[nH]c(=O)c2c1C (configuration not stated)	> 100 µM (inactive)	> 100	> 100	> 100
O=C(NC1CCCC1)c1ccccc1OCc1ccccc1	5.69 µM	37.6	> 100	> 100
COC(=O)[C@@]1(Cc2ccc(F)cc2)[C@H]2c3cc(C(=O)N(C)C)n(Cc4ccc(OC)c(OC)c4)c3C[C@H]2CN1C(=O)c1ccccc1	> 100 µM (inactive)	> 100	> 100	> 100
Cc1cc(C)cc(NC(=O)c2cc(Cl)sc2Cl)c1	4.84 µM	> 100	> 100	7.73
COc1cc2c(C(=O)N3CCN(c4ccccc4C)CC3)c(C)oc2cc1Br	> 100 µM (inactive)	> 100	> 100	> 100
NC(=O)C1CCCN(C(=O)c2ccc(NC(=O)c3cccs3)cc2)C1 (configuration not stated)	> 100 µM (inactive)	> 100	> 100	> 100
Cc1ccc(C(=O)NCCc2nnc3ccc(SCC(=O)Nc4ccccc4C)nn23)cc1	> 100 µM (inactive)	> 100	> 100	> 100
NS(=O)(=O)c1ccc(O)c(NC(=O)c2ccc([N+](=O)[O-])o2)c1	12.7 µM (inactive)	27.2	> 100	> 100
CCOC(=O)Cn1c(=NC(=O)C2CC2)sc2c(C)cc(C)cc21	9.84 µM	> 100	> 100	> 100
O=C(CN1C(=O)c2cccc([N+](=O)[O-])c2C1=O)N1CCN(c2ccc(F)cc2)CC1	58.6 µM (inactive)	91.4	> 100	74.5
O=C(C1=C[C@H](c2ccc(Br)cc2)C[C@H](OCCCCO)O1)N1CCN(Cc2ccc3c(c2)OCO3)CC1	49.4 µM (inactive)	65.3	88	> 100
CC1(C)C2CC=C(/C=N/NC(=O)c3ccccc3O)C1C2 (configuration not stated)	65.7 µM (inactive)	> 100	> 100	> 100
C[C@H]1C=CC(=O)O[C@H]1c1ccccc1	21 µM (inactive)	43.7	60.6	49.5
Cc1cc(/C=N/NC(=O)CC#N)c(C)n1-c1ccc([N+](=O)[O-])cc1	10.2 µM	> 100	> 100	> 100
Cc1cccc(CSc2nnc(C)c(=O)n2N)c1	5.94 µM (inactive)	12.4	20.9	9.9
COC(=O)c1sc(-c2ccc(C(C)(C)C)cc2)cc1NC(=O)CCC(=O)O	1.37 µM	23.8	> 100	28.7

Structure (SMILES)	IC50	IC50 [1] [µM]	IC90 [2] [µM]	IC90 [3] [µM]
O=C(N/N=C/C(Br)=C\c1ccccc1)c1ccc2nc[nH]c2c1	30.4 µM	> 100	> 100	> 100
COc1ccc(C2c3c(C)nn(-c4ccccc4)c3NC(=O)N2c2ccccc2)cc1 (configuration not stated)	17.4 µM	> 100	> 100	> 100
CCOc1ccc(N=c2cc(-c3ccc(OC)cc3)oc3ccccc23)cc1	45.2 µM (inactive)	40.1	44.4	50.3
CCOC(=O)c1c(NC(=S)NC(=O)c2ccc(Cn3cc(Cl)cn3)o2)sc2c1CCC(C)C2 (configuration not stated)	> 100 µM (inactive)	> 100	> 100	> 100
CCOC(=O)c1nn(-c2ccccc2)c(C#N)c1NC(=O)c1nn(CC)cc1Br	> 100 µM (inactive)	> 100	> 100	> 100
Cc1ccc(-n2nnnc2Sc2nc([N+](=O)[O-])nn2C)c(C)c1	16.5 µM	50.4	> 100	> 100
Cn1c(O)c(C2=c3ccccc3=NC2=O)[nH]c1=S	16.6 µM	> 100	> 100	> 100
COc1ccc(Cl)cc1NC(=O)CN(C)C(=O)c1ccc(N2CCCCCC2)c([N+](=O)[O-])c1	> 100 µM (inactive)	> 100	> 100	> 100
CCN(CC)c1ccc(N=Cc2c(O)n(-c3ccc(Cl)cc3)c(=O)[nH]c2=O)cc1	20.9 µM	> 100	> 100	> 100
Cc1cccc(NC(=O)Cn2cnc3c(oc4ccccc43)c2=O)c1C	> 100 µM (inactive)	> 100	> 100	> 100
N#CC1=C2C=Cc3ccccc3N2CCCC1=O	21.6 µM	93.3	> 100	> 100
Cc1ccc(CC(=O)Nc2nc3ccccc3[nH]2)cc1C	6.31 µM	> 100	> 100	> 25
O=C(CSc1ncn[nH]1)Nc1cccc2ccccc12	29.6 µM (inactive)	50.7	> 100	65
Cc1ccc(C(=O)OCCN2CCN(c3ncc(C(F)(F)F)cc3Cl)CC2)cc1	> 100 µM (inactive)	> 100	> 100	> 100
CCOc1ccc(S(=O)(=O)n2nnc3ccccc32)cc1C(C)C	> 100 µM (inactive)	> 100	> 100	> 100
CCOc1ccc2nc(SC3CC(=O)N(c4ccc(OC)cc4)C3=O)sc2c1 (configuration not stated)	> 100 µM (inactive)	> 100	> 100	> 100
CC(NC(=O)CSc1nc2ccccc2c(=O)[nH]1)c1ccccc1 (configuration not stated)	18.9 µM (inactive)	23.8	> 100	60.9
CCOc1ccc(S(=O)(=O)N(C(=O)c2ccco2)c2cc3sc(=O)oc3c3ccccc23)cc1	44.7 µM (inactive)	41.8	45.1	46.9

Source: PubChem BioAssay AID434987 (Southern Research Specialized Biocontainment Screening …, 2010)
